The source of these data is patent US4843070A, “Substituted thiazetoquinoline-3-carboxylic acids and pharmaceutically acceptable salts thereof” (priority 1986, dated 1989).

For test [1], the system named is infections caused by Gram positive bacteria and Pseudomonas aeruginosa (chronic). Conditions: background statement; cited from earlier work.
The next test relates to S. aureus 209-P JC. The experiment in a line: MIC by agar plate dilution method, S. aureus 209-P JC. To be noted: Staphylococcus aureus, S. aureus 209-P JC, inoculum 10^6, 37° C., 18 hours, read-out: minimum inhibitory concentration (MIC). In kind it is cell-based. How it is done:
(§1) Test method: The MIC was measured by an agar plate dilution method in accordance with a standard method of Japan Chemotherapeutic Society (cf. Nippon Kagaku Ryoho Gakkaishi, 29(1), 76-79, 1981). Thus, the organisms incubated at 37° C. for 18 hours using sensitivity test broth (Nissei) was diluted to 10^6 CFU/ml using the same broth. […] As a control, enoxacin and ofloxacin were used in Tests 1 and 2, respectively.
(§2) The numbers of the inoculated bacteria were 10^6 in all cases and the unit of the MIC was micrograms/ml.

The subject of another test is M. luteus ATCC 9341. The experiment in a line: MIC by agar plate dilution method, M. luteus ATCC 9341. In kind it is cell-based. Conditions: Micrococcus luteus, ATCC9341, inoculum 10^6, 37° C., 18 hours, read-out: minimum inhibitory concentration (MIC). The procedure: as §1, §2
The test system of another test is B. subtilis ATCC 6633. The experiment in a line: MIC by agar plate dilution method, B. subtilis ATCC 6633. In kind it is cell-based. Conditions: Bacillus subtilis, ATCC6633, B. subtilis ATCC 6633, inoculum 10^6, 37° C., 18 hours, read-out: minimum inhibitory concentration (MIC). The procedure: as §1, §2
The next test deals with E. coli NIHJ JC-2. The experiment in a line: MIC by agar plate dilution method, E. coli NIHJ JC-2. In kind it is cell-based. Conditions: Escherichia coli, NIHJJC2, E. coli NIHJ JC-2, inoculum 10^6, 37° C., 18 hours, read-out: minimum inhibitory concentration (MIC). The procedure: as §1, §2
The subject of another test is K. pneumoniae K-1966. The experiment in a line: MIC by agar plate dilution method, K. pneumoniae K-1966. In kind it is cell-based. Conditions: Klebsiella pneumoniae, K1966, K. pneumoniae K-1966, inoculum 10^6, 37° C., 18 hours, read-out: minimum inhibitory concentration (MIC). How it is done:
as §1, §2

Another test relates to S. marcescens IFO 3736. The experiment in a line: MIC by agar plate dilution method, S. marcescens IFO 3736. In kind it is cell-based. To be noted: Serratia marcescens, IFO3736, inoculum 10^6, 37° C., 18 hours, read-out: minimum inhibitory concentration (MIC). How it is done:
as §1, §2

Another test relates to S. flexneri. The experiment in a line: MIC by agar plate dilution method, S. flexneri. In kind it is cell-based. To be noted: Shigella flexneri, 18 hours, read-out: minimum inhibitory concentration (MIC). How it is done:
as §1, §2

In another test the test system is P. aeruginosa E-2. The experiment in a line: MIC by agar plate dilution method, P. aeruginosa E-2. In kind it is cell-based. Conditions: Pseudomonas aeruginosa, E2, P. aeruginosa E-2, inoculum 10^6, 37° C., 18 hours, read-out: minimum inhibitory concentration (MIC). The procedure:
as §1, §2

For a further test, the system named is S. epidermidis. The experiment in a line: MIC by agar plate dilution method, S. epidermidis. In kind it is cell-based. To be noted: Staphylococcus epidermidis, Test 2, inoculum 10^6, 37° C., 18 hours, read-out: minimum inhibitory concentration (MIC). How it is done:
as §1, §2

The test system of the next test is Proteus mirabilis 181. The experiment in a line: MIC by agar plate dilution method, Proteus mirabilis 181. In kind it is cell-based. To be noted: Test 2; Proteus mirabilis 181; inoculum 10^6; 37° C., 18 hours; read-out: minimum inhibitory concentration (MIC). How it is done: as §1, §2
In a further test the test system is S. aureus Smith. The experiment in a line: MIC by agar plate dilution method, S. aureus Smith. In kind it is cell-based. Conditions: Staphylococcus aureus; Test 1; S. aureus Smith; inoculum 10^6; 37° C., 18 hours; read-out: minimum inhibitory concentration (MIC). The procedure: as §1, §2
Another test deals with E. coli KC-14. The experiment in a line: MIC by agar plate dilution method, E. coli KC-14. In kind it is cell-based. To be noted: Escherichia coli, KC14; Test 1; E. coli KC-14; inoculum 10^6; 37° C., 18 hours; read-out: minimum inhibitory concentration (MIC). The procedure:
as §1, §2

A further test has as its system E. cloacae No. 1. The experiment in a line: MIC by agar plate dilution method, E. cloacae No. 1. In kind it is cell-based. To be noted: Enterobacter cloacae; Test 1; E. cloacae No. 1; inoculum 10^6; 37° C., 18 hours; read-out: minimum inhibitory concentration (MIC). The procedure: as §1, §2
A further test deals with P. vulgaris HX-19. The experiment in a line: MIC by agar plate dilution method, P. vulgaris HX-19. Conditions: Proteus vulgaris, HX19, Test 1, inoculum 10^6, 37° C., 18 hours, read-out: minimum inhibitory concentration (MIC). In kind it is cell-based. The procedure: as §1, §2
A further test concerns A. calcoaceticus 54. The experiment in a line: MIC by agar plate dilution method, A. calcoaceticus 54. To be noted: Acinetobacter calcoaceticus; Test 1; A. calcoaceticus 54; inoculum 10^6; 37° C., 18 hours; read-out: minimum inhibitory concentration (MIC). In kind it is cell-based. How it is done:
as §1, §2

Structures are written as SMILES. ≈ marks a conversion by molar mass, not a printed value. Like-named read-outs stand apart in the source and are kept apart here.

Turning to `CCn1cc(C(=O)O)c(=O)c2cnc(N3CCCC3)nc21` [piromidic acid], the “activity against infections caused by Gram positive bacteria and Pseudomonas aeruginosa (chronic)” value (“activity against infections caused” for short) in test [1] is listed as “not active”.

With `O=C(O)c1c2n(c3cc(N4CCNCC4)c(F)cc3c1=O)C(c1ccccc1)S2` (centres unmarked) [Table 1 (11), 6-Fluoro-4-oxo-1-phenyl-7-(1-piperazinyl)-4H-(1,3)thiazeto(3,2-a)quinoline-3-carboxylic acid], the MIC stood at 0.2 µg/mL (≈ 0.486 µM) in the test on S. aureus 209-P JC (Test 2); 3.13 µg/mL (≈ 7.61 µM) in the test on M. luteus ATCC 9341 (Test 2, M. luteus ATTC 9341); 0.05 µg/mL (≈ 0.122 µM) in the test with B. subtilis ATCC 6633 (Test 2); 0.025 µg/mL (≈ 0.0608 µM) in the test on E. coli NIHJ JC-2 (Test 2); 0.025 µg/mL (≈ 0.0608 µM) in the test on K. pneumoniae K-1966 (Test 2); 0.05 µg/mL (≈ 0.122 µM) in the test with S. marcescens IFO 3736 (Test 2, S. Marcescens IFO 3736). Moreover, the MIC turned out to be 0.025 µg/mL (≈ 0.0608 µM) in the test with S. flexneri (Test 2, inoculum 10^6, 37° C.); 0.2 µg/mL (≈ 0.486 µM) with P. aeruginosa E-2 (Test 2); 1.56 µg/mL (≈ 3.79 µM) with S. epidermidis; 0.05 µg/mL (≈ 0.122 µM) in the test on Proteus mirabilis 181.

As for `CCn1cc(C(=O)O)c(=O)c2cnc(N3CCNCC3)nc21` [pipemidic acid], the “activity against infections caused” value in [1] was “not active”.

For `CCn1cc(C(=O)O)c(=O)c2ccc(C)nc21` [nalidixic acid], the “activity against infections caused” value in test [1] is given as “not active”.

For the compound `CC1Sc2c(C(=O)O)c(=O)c3cc(F)c(N4CCN(C)CC4)c(N)c3n21` (centres unmarked) [Table 1 (9), 8-Amino-6-fluoro-1-methyl-7-(4-methyl-1-piperazinyl)-4-oxo-4H-(1,3)thiazeto(3,2-a)quinoline-3-carboxylic acid], the MIC worked out at 0.39 µg/mL (≈ 1.03 µM) in the test with S. aureus 209-P JC (Test 1); 0.2 µg/mL (≈ 0.529 µM) in the test on S. aureus Smith; 50 µg/mL (≈ 132 µM) with M. luteus ATCC 9341 (Test 1, M. luteus ATCC 9341); 0.2 µg/mL (≈ 0.529 µM) with B. subtilis ATCC 6633 (Test 1); 0.1 µg/mL (≈ 0.264 µM) in the test on E. coli NIHJ JC-2 (Test 1); 0.05 µg/mL (≈ 0.132 µM) in the test with E. coli KC-14. For the same compound, the MIC in the test on K. pneumoniae K-1966 (Test 1) is 0.1 µg/mL (≈ 0.264 µM); in the test with E. cloacae No. 1 it was 0.2 µg/mL (≈ 0.529 µM); in the test with S. marcescens IFO 3736 (Test 1, S. marcescens IFO 3736), 0.39 µg/mL (≈ 1.03 µM); in the test with P. vulgaris HX-19 it was 0.025 µg/mL (≈ 0.0661 µM); in the test with S. flexneri (Test 1, inoculum 10^6, 37° C.), 0.05 µg/mL (≈ 0.132 µM); in the test on P. aeruginosa E-2 (Test 1), 1.56 µg/mL (≈ 4.12 µM). The MIC in the test on A. calcoaceticus 54 was 0.78 µg/mL (≈ 2.06 µM).
